Results published in PubChem BioAssay (NCI).
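Assay format: 96-well plates, 48-hour exposure. Definition used: TGI = concentration required for complete inhibition of growth.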

Legend:
Experiment in all cases: inhibition of tumour cell growth, NCI panel, 48 h
MALME-3M melanoma = tested on: MALME-3M melanoma
HT29 colon = tested on: HT29 colon
OVCAR-4 ovarian = tested on: OVCAR-4 ovarian
SK-MEL-5 melanoma = tested on: SK-MEL-5 melanoma
NCI-H460 lung = tested on: NCI-H460 lung
EKVX NSCLC = tested on: EKVX NSCLC
IGROV1 ovarian = tested on: IGROV1 ovarian
CCRF-CEM leukemia = tested on: CCRF-CEM leukemia
MOLT-4 leukemia = tested on: MOLT-4 leukemia
MCF7 breast = tested on: MCF7 breast
SK-MEL-2 melanoma = tested on: SK-MEL-2 melanoma
OVCAR-3 ovarian = tested on: OVCAR-3 ovarian
NCI-H226 lung = tested on: NCI-H226 lung
OVCAR-8 ovarian = tested on: OVCAR-8 ovarian
K-562 leukemia = tested on: K-562 leukemia
LXFL 529 NSCLC = tested on: LXFL 529 NSCLC

Cn1c2c(c3ccccc31)CC(=O)N1CCCC(C1)CC21OCCO1 (stereo not given)
TGI (MALME-3M melanoma): > 100 µM | TGI (HT29 colon): > 100 µM | TGI (OVCAR-4 ovarian): > 100 µM | TGI (SK-MEL-5 melanoma): > 100 µM | TGI (NCI-H460 lung): > 100 µM | TGI (EKVX NSCLC): > 100 µM | TGI (IGROV1 ovarian): > 100 µM | TGI (CCRF-CEM leukemia): > 100 µM | TGI (MOLT-4 leukemia): > 100 µM | TGI (MCF7 breast): > 100 µM | TGI (SK-MEL-2 melanoma): > 100 µM | TGI (OVCAR-3 ovarian): > 100 µM | TGI (NCI-H226 lung): > 100 µM | TGI (OVCAR-8 ovarian): > 100 µM | TGI (K-562 leukemia): > 100 µM

CCCC(=O)n1[nH]c(=O)n(C(C)(C)C)c1=O
TGI (MALME-3M melanoma): > 100 µM | TGI (HT29 colon): > 100 µM | TGI (OVCAR-4 ovarian): > 100 µM | TGI (SK-MEL-5 melanoma): > 100 µM | TGI (NCI-H460 lung): > 100 µM | TGI (EKVX NSCLC): > 100 µM | TGI (IGROV1 ovarian): > 100 µM | TGI (CCRF-CEM leukemia): > 100 µM | TGI (MOLT-4 leukemia): > 100 µM | TGI (MCF7 breast): > 100 µM | TGI (SK-MEL-2 melanoma): > 100 µM | TGI (OVCAR-3 ovarian): > 100 µM | TGI (NCI-H226 lung): > 100 µM | TGI (OVCAR-8 ovarian): > 100 µM | TGI (K-562 leukemia): > 100 µM

Cc1ccc(N(C)S(=O)(=O)c2ccccc2)cc1
TGI (MALME-3M melanoma): > 100 µM | TGI (HT29 colon): > 100 µM | TGI (OVCAR-4 ovarian): > 100 µM | TGI (SK-MEL-5 melanoma): > 100 µM | TGI (NCI-H460 lung): > 100 µM | TGI (EKVX NSCLC): > 100 µM | TGI (IGROV1 ovarian): > 100 µM | TGI (CCRF-CEM leukemia): > 100 µM | TGI (MOLT-4 leukemia): > 100 µM | TGI (MCF7 breast): > 100 µM | TGI (SK-MEL-2 melanoma): > 100 µM | TGI (OVCAR-3 ovarian): > 100 µM | TGI (NCI-H226 lung): > 100 µM | TGI (OVCAR-8 ovarian): > 100 µM | TGI (K-562 leukemia): > 100 µM

c1ccc2c(c1)ncn2CCn1ccnc1
TGI (MALME-3M melanoma): > 100 µM | TGI (HT29 colon): > 100 µM | TGI (OVCAR-4 ovarian): > 100 µM | TGI (SK-MEL-5 melanoma): > 100 µM | TGI (NCI-H460 lung): > 100 µM | TGI (EKVX NSCLC): > 100 µM | TGI (IGROV1 ovarian): > 100 µM | TGI (CCRF-CEM leukemia): > 100 µM | TGI (MOLT-4 leukemia): > 100 µM | TGI (MCF7 breast): > 100 µM | TGI (SK-MEL-2 melanoma): > 100 µM | TGI (OVCAR-3 ovarian): > 100 µM | TGI (NCI-H226 lung): > 100 µM | TGI (OVCAR-8 ovarian): > 100 µM | TGI (K-562 leukemia): > 100 µM

O=C(O)/C(=C/c1ccccc1[N+](=O)[O-])c1cccs1
TGI (HT29 colon): > 100 µM | TGI (OVCAR-4 ovarian): > 100 µM | TGI (SK-MEL-5 melanoma): > 100 µM | TGI (NCI-H460 lung): > 100 µM | TGI (EKVX NSCLC): > 100 µM | TGI (IGROV1 ovarian): > 100 µM | TGI (LXFL 529 NSCLC): > 100 µM | TGI (MOLT-4 leukemia): > 100 µM | TGI (SK-MEL-2 melanoma): > 100 µM | TGI (OVCAR-3 ovarian): > 100 µM | TGI (NCI-H226 lung): > 100 µM | TGI (OVCAR-8 ovarian): > 100 µM | TGI (K-562 leukemia): > 100 µM

O=S(=O)(c1ccccc1)n1cnc(CCc2ccccc2)n1
TGI (MALME-3M melanoma): > 100 µM | TGI (HT29 colon): > 100 µM | TGI (OVCAR-4 ovarian): > 100 µM | TGI (SK-MEL-5 melanoma): > 100 µM | TGI (NCI-H460 lung): > 100 µM | TGI (IGROV1 ovarian): > 100 µM | TGI (CCRF-CEM leukemia): > 100 µM | TGI (LXFL 529 NSCLC): > 100 µM | TGI (MOLT-4 leukemia): > 100 µM | TGI (SK-MEL-2 melanoma): > 100 µM | TGI (OVCAR-3 ovarian): > 100 µM | TGI (NCI-H226 lung): > 100 µM | TGI (OVCAR-8 ovarian): > 100 µM | TGI (K-562 leukemia): > 100 µM

COC(=O)c1ccc(-n2c(C)nc(=O)c(-c3ccccc3)c2C)cc1
TGI (MALME-3M melanoma): > 100 µM | TGI (HT29 colon): > 100 µM | TGI (OVCAR-4 ovarian): > 100 µM | TGI (SK-MEL-5 melanoma): > 100 µM | TGI (NCI-H460 lung): > 100 µM | TGI (EKVX NSCLC): > 100 µM | TGI (IGROV1 ovarian): > 100 µM | TGI (CCRF-CEM leukemia): > 100 µM | TGI (MOLT-4 leukemia): > 100 µM | TGI (MCF7 breast): > 100 µM | TGI (SK-MEL-2 melanoma): > 100 µM | TGI (OVCAR-3 ovarian): > 100 µM | TGI (NCI-H226 lung): > 100 µM | TGI (OVCAR-8 ovarian): > 100 µM | TGI (K-562 leukemia): > 100 µM

Cc1ccc(S(=O)(=O)C(C#N)c2nc3ccccc3nc2N2CCOCC2)cc1 (stereo not given)
TGI (MALME-3M melanoma): 63.5 µM | TGI (OVCAR-4 ovarian): 37.4 µM | TGI (SK-MEL-5 melanoma): > 100 µM | TGI (NCI-H460 lung): 39.7 µM | TGI (EKVX NSCLC): > 100 µM | TGI (IGROV1 ovarian): 59.1 µM | TGI (CCRF-CEM leukemia): 62.2 µM | TGI (LXFL 529 NSCLC): > 100 µM | TGI (MOLT-4 leukemia): 58.7 µM | TGI (SK-MEL-2 melanoma): 88.6 µM | TGI (OVCAR-3 ovarian): 91.6 µM | TGI (NCI-H226 lung): > 100 µM

COC(=O)NN/C=C(\C=Nc1ccccc1)[N+](=O)[O-]
TGI (HT29 colon): > 100 µM | TGI (OVCAR-4 ovarian): > 100 µM | TGI (SK-MEL-5 melanoma): > 100 µM | TGI (NCI-H460 lung): > 100 µM | TGI (EKVX NSCLC): > 100 µM | TGI (IGROV1 ovarian): > 100 µM | TGI (CCRF-CEM leukemia): > 100 µM | TGI (LXFL 529 NSCLC): > 100 µM | TGI (MOLT-4 leukemia): > 100 µM | TGI (OVCAR-3 ovarian): > 100 µM | TGI (OVCAR-8 ovarian): > 100 µM | TGI (K-562 leukemia): > 100 µM

CC(C)(C)c1cc(Oc2ccc(C#N)c(C#N)c2)cc(C(C)(C)C)c1
TGI (MALME-3M melanoma): > 100 µM | TGI (HT29 colon): > 100 µM | TGI (OVCAR-4 ovarian): > 100 µM | TGI (SK-MEL-5 melanoma): > 100 µM | TGI (NCI-H460 lung): > 100 µM | TGI (EKVX NSCLC): > 100 µM | TGI (IGROV1 ovarian): > 100 µM | TGI (CCRF-CEM leukemia): > 100 µM | TGI (LXFL 529 NSCLC): > 100 µM | TGI (MOLT-4 leukemia): > 100 µM | TGI (SK-MEL-2 melanoma): > 100 µM | TGI (OVCAR-3 ovarian): > 100 µM | TGI (NCI-H226 lung): > 100 µM | TGI (OVCAR-8 ovarian): > 100 µM | TGI (K-562 leukemia): > 100 µM

C=C(C)C1Cc2c(cc(OC)c3c(=O)c4ccccc4n(C)c23)O1 (stereo not given)
TGI (MALME-3M melanoma): > 100 µM | TGI (HT29 colon): > 100 µM | TGI (OVCAR-4 ovarian): > 100 µM | TGI (SK-MEL-5 melanoma): > 100 µM | TGI (NCI-H460 lung): > 100 µM | TGI (EKVX NSCLC): > 100 µM | TGI (IGROV1 ovarian): > 100 µM | TGI (CCRF-CEM leukemia): > 100 µM | TGI (LXFL 529 NSCLC): > 100 µM | TGI (SK-MEL-2 melanoma): > 100 µM | TGI (OVCAR-3 ovarian): > 100 µM | TGI (NCI-H226 lung): > 100 µM | TGI (OVCAR-8 ovarian): > 100 µM | TGI (K-562 leukemia): > 100 µM
